Data set [1] is classed as physicochemical. The protocol:
Determination of logD7.4. The log of distribution coefficients at pH 7.4 was determined in octanol-phosphate-buffered saline (PBS) using the miniaturized shake flask setup described previously.^36, 47 Briefly, 150 mL each of octanol and PBS pH 7.4 were stirred vigorously for 12-16 h. The layers were allowed to stand for at least 24 h for phase separation. The separated layers were collected and served as PBS saturated with octanol (PBS*) and octanol saturated with PBS (octanol*). Stock solutions (1 mM or 5 mM) of ligands were prepared in DMSO and diluted in PBS* to obtain 1 μM or 10 μM (3-5 mL) of the standard (std). This standard was used to prepare appropriate dilutions using octanol*, in triplicate, in 2-mL glass vials. The leftover standard was used to determine the standard concentration (Cstd). The vials were vortexed for 1 min and shaken horizontally at 700 rpm for 2 h. The vials were then shaken upright at 150 rpm for 2 h to allow the phases to separate. The octanol* layer was pipetted out, and the PBS* layer was used for further analyses. The concentrations of ligands in the standard and PBS* (CPBS*) were determined via fluorescence measurements of 200 μL of PBS* or std in 96-well plates on the Cytation 5 Multimode Plate Reader (BioTek). For Si-rhodamine containing ligands, 2-20 μL of trifluoroacetic acid was added to each well of the 96-well plate prior to the fluorescence measurements. Reported values are averages of at least two measurements. The logD7.4 was obtained as described previously using equation 2:
[formula] • where Cstd is the standard concentration in PBS, CPBS* is the concentration in PBS after partitioning, r is the dilution factor of the standard solution, VPBS* is the volume of PBS used in the partitioning, and Voctanol* is the volume of octanol used in the partitioning.

The nature of data set [2]: Determination of lactone-zwitterion equilibrium constant (KL-Z). Format: physicochemical. The conditions noted are these: 1:1 (v/v) dioxane:water. How it is done:
Determination of KL-Z. The lactone-zwitterion equilibrium constant (KL-Z) was calculated as described previously^13, 23, 32, 45 using equation 1: […]
where εdw is the extinction coefficient of the dyes in a 1:1 (v/v) dioxane:water solvent mixture containing 0.01% (v/v) triethylamine; this dioxane water mixture was chosen to give a large range of KL-Z values,^23 and the triethylamine additive ensures the rhodamines are in the net neutral form. The εmax is the maximal extinction coefficient, measured in 0.1% (v/v) trifluoroacetic acid in 2,2,2-trifluoroethanol (TFE).

In data set [3] the target is T1, msGFP-HaloTag® fusion localized to the mitochondrial outer membrane (Rhodococcus rhodochrous, UniProt P0A3G2, A155T/A167V/A172T/A224E/C128F/C176G/D78G/E160K/E257K/H272N/K175M/K195N/L47V/L88M/N227D/S58T/T264A/Y273L/Y87F).
T1 construct: expressed in transfected cells; host or cells: HEK293T, calcium phosphate transfection
Nature of the data set: HEK293T labeling and fluorescence microscopy. Format: cell-based. The conditions noted are these: live HEK293T cells, nanomolar concentration (100 nM, 1 h). An excerpt: Plasmid construction. HaloTag®, amplified from the pHTC HaloTag® CMV-neo Vector (Promega; G7711) and monomeric-superfolder green fluorescent protein (msGFP; lab stock), was fused to the mitochondrial targeting signal from OMP25,^28 interspacing flexible GS(GSS)4 linkers between each domain by PCR Splicing by Overlap Extension (SOE). This construct was subcloned into hSynapsin promoter bearing a copy of FUGW.^29 FUGW was a gift from David Baltimore (Addgene plasmid #14883; RRID: Addgene_14883).^48 This construct was designated as pF(UG) hSyn HaloTag®-TEV-4×GS-msGFP-mito.
HEK293T cell culture. HEK293T cells (ATCC) were passaged before 80% confluency by trypsinization (Corning; 25-053-CI) and trituration. The cell suspension was then plated on glass coverslips (Warner instruments; 64-0734, CS-18R17) coated with poly-D-lysine (Thermofisher; ICN10269491) and cultured in Dulbecco's Modified Eagle Medium (DMEM; ThermoFisher; 11965-118) supplemented with 10% v/v fetal bovine serum (FBS, Atlanta Biological) and penicillin/streptomycin (pen/strep; ThermoFisher; MT-30-001-CI) at 37° C. in a humidified 5% v/v CO2 environment following ATCC guidelines. These HEK293T cells were tested for mycoplasma contamination using the Universal Mycoplasma Detection Kit (ATCC; 30-1012K) and validated using Short Tandem Repeat profiling by ATCC (ATCC; 135-XV) within the previous year.
HEK293T labeling and fluorescence microscopy. […] For pulse-chase experiments, HEK293T cells were incubated with biotin-HaloTag® ligand (6; #G8281, Promega) at either 100 nM or 10 μM for 1 hour at 37° C. and chased with 100 nM of JANELIA FLUOR® (JF)549-HaloTag® ligand (2HTL). […] For imaging, the coverslips containing HEK293T cells were fixed with 4% paraformaldehyde in PBS at 37° C. for 10 min, washed with PBS (3×), and mounted on glass slides with ProLong Glass Antifade Mountant with NucBlue™ Stain (ThermoFisher; P36981). These cells were imaged using a Zeiss LSM 880 with Airyscan and a plan-apochromatic 63×/1.40 oil objective in Fast Airyscan mode. The same image acquisition settings were used for each trial and condition. Images were then processed with automatic Airyscan deconvolution settings.

For data set [4] the following is noted: 1:1 (v/v) dioxane-water; parent JF dyes; cited from earlier work.
Data set [5] relates to HaloTag®-histone H2B fusion protein. Type of data set: cell-based. The conditions noted are these: 200 nM, live U2OS cells expressing HaloTag®-H2B, 0-4 h. The protocol: Dye loading kinetics. Live U2OS.H2B.HaloTag® stable cells were labeled over a time course of 0-4 h with 200 nM of biotin-JF549-HaloTag® ligand (12), biotin-JF608-HaloTag® ligand (13), biotin-JF646-HaloTag® ligand (14), or biotin-JF635-HaloTag® ligand (15) at 37° C. Cells were then washed 3× with dye-free media, fixed with 4% paraformaldehyde in 0.1 M phosphate buffer, pH 7.4 for 15 min at 37° C. Confocal imaging was performed on a Leica SP8 with an HC PL APO CS2 20×/0.75 immersion objective using the tunable white light laser (WLL) to excite dyes at their λabs in constant power mode. Fluorescence was quantified as the average integrated density of background corrected nuclear signals from confocal image stack projections analyzed in FIJI; n=100 nuclear signals per compound.

Data set [6] in a line: 1-Photon spectroscopy and quantum yield of HaloTag® ligands. Format: physicochemical. The conditions noted are these: free ligand, 10 mM HEPES pH 7.3. How it is done:
1-Photon spectroscopy of HaloTag® ligands and HaloTag® conjugates. […] All measurements were taken at ambient temperature (22 ±2° C.). Absorption spectra were recorded on a Cary Model 100 spectrometer (Agilent) using 1-cm path length 1.0-mL quartz microcuvettes from Starna Cells. Fluorescence spectra were recorded on a Cary Eclipse fluorometer (Varian) using 1-cm path length 3.5-mL quartz cuvettes (Starna Cells). As before,^13, 23, 32, 45 HaloTag® protein was used as a 100 μM solution in 1×TBS. HaloTag® ligands 12-15 (5 μM) were dissolved in 10 mM HEPES, pH 7.3, containing 0.1 mg/mL CHAPS. An aliquot of HaloTag® protein (1.5 equiv) was added, and the resulting mixture was incubated until a consistent absorbance signal was observed (60-120 min). To measure the fold-increase of absorbance upon HaloTag® binding, a “no HaloTag®” control experiment was performed where an equivalent volume of TBS blank was added in place of the protein. Reported values for extinction coefficient (ε) are averages of at least two measurements.
Quantum yield determination. All reported absolute fluorescence quantum yield values (Φf) were measured in the laboratory under identical conditions using a Quantaurus-QY spectrometer (model C11374, Hamamatsu). This instrument uses an integrating sphere to determine photons absorbed and emitted by a sample. Measurements were performed using dilute samples (absorbance<0.1), and self-absorption corrections were performed using the instrument software.^46 Reported values are averages of at least two measurements.

These results are taken from US20240239818A1, “COMPOUNDS AND COMPOSITIONS COMPRISING FLUOROPHORES FOR USE IN VISUALIZATION AND PURIFICATION OR MANIPULATION” (priority 2022, published 2024).

Read-outs that look alike come from different tables or passages of the source.

T1 sequence (P0A3G2 other isoform, or with tags, fused parts or gaps with the stated changes): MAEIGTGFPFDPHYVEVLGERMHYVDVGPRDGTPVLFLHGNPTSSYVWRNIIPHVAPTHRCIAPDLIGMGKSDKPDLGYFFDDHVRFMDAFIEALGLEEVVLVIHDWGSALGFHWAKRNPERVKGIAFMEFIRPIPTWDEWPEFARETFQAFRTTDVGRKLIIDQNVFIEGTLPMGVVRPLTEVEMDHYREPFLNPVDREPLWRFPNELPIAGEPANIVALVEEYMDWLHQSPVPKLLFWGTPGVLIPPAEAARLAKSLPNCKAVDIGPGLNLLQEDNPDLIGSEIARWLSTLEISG

Take `O=C(NCCOCCOCCCCCCCl)c1ccc2c(c1)C1(OC2=O)c2ccc(N3CCC3)cc2Oc2cc(N3CCC3)ccc21` [2HTL, JF549-HaloTag® ligand, reference compound]: the logD7.4 in data set [1] (pH 7.4) was 0.82. The compound also yielded a KL-Z in data set [2] of 5.2. In addition, the “labeling of mitochondria-localized HaloTag®-msGFP fusion” value in data set [3] is “labeled the mitochondria-localized HaloTag®-msGFP fusions”.

`CC1(C)c2cc(N3CCC3)ccc2C2(OC(=O)c3ccc(C(=O)NCCOCCOCCCCCCCl)cc32)c2ccc(N3CCC3)cc21` [3HTL, reference compound] returned a logD7.4 in data set [1] (octanol-PBS pH 7.4) of 3.55. The compound also displayed a KL-Z in data set [2] of 0.33.

`C[Si]1(C)c2cc(N3CCC3)ccc2C2(OC(=O)c3ccc(C(=O)NCCOCCOCCCCCCCl)cc32)c2ccc(N3CCC3)cc21` [4HTL, JF646-HaloTag® ligand, reference compound] showed a logD7.4 in data set [1] (octanol-PBS pH 7.4) of 3.59. The KL-Z in data set [2] worked out at 0.010. The “labeling of mitochondria-localized HaloTag®-msGFP fusion” value in data set [3] was “labeled the mitochondria in live cells”.

On to `O=C1OC2(c3ccc(N4CCC4)cc3Oc3cc(N4CCC4)ccc32)c2ccccc21` [compound 2, Janelia Fluor 549], for which, in data set [1] (pH 7.4), the logD7.4 is on record as 0.98. The KL-Z in data set [4] is reported as 3.5.

In data set [1] (octanol-PBS pH 7.4), `CC1(C)c2cc(N3CCC3)ccc2C2(OC(=O)c3ccccc32)c2ccc(N3CCC3)cc21` [compound 3, JF608] came in with a logD7.4 of 3.78. In addition, the KL-Z in data set [4] is recorded as 0.091.

`C[Si]1(C)c2cc(N3CCC3)ccc2C2(OC(=O)c3ccccc32)c2ccc(N3CCC3)cc21` [compound 4, JF646] yielded a logD7.4 in data set [1] (octanol-PBS pH 7.4) of 3.98. Moreover, in data set [4], the KL-Z is listed as 0.0014.

In data set [1] (octanol-PBS pH 7.4), `C[Si]1(C)c2cc(N3CC(F)C3)ccc2C2(OC(=O)c3ccccc32)c2ccc(N3CC(F)C3)cc21` [compound 5, JF635] registered a logD7.4 of 4.1. For the same compound, the KL-Z in data set [4] is given as 0.0001.

Regarding `CC1(C)C2=CC(=[N+]3CC(C(=O)NCCOCCOCCNC(=O)CCCC[C@@H]4SC[C@@H]5NC(=O)N[C@@H]54)C3)C=CC2=C(c2cc(C(=O)NCCOCCOCCCCCCCl)ccc2C(=O)[O-])c2ccc(N3CCC3)cc21` (some centres unmarked) [compound 13, Biotin-JF608-HaloTag® ligand], the logD7.4 in data set [1] (pH 7.4) is 2.63. Also, the KL-Z in data set [2] turned out to be 0.17. Moreover, the “time to reach saturation of labeling” value in data set [5] was 4 h. In data set [6], the “extinction coefficient (ε)” value is given as 92,300 M^−1cm^−1, the “fluorescence quantum yield (Φf)” value is given as 0.65, the λabs worked out at 610 nm and the λem was found to be 634 nm.
